Reference: patent US10800752B2, “Substituted naphtho[2,3-b]furans as water-soluble prodrugs for preventing and/or treating cancer” (BOSTON BIOMEDICAL, INC., priority 2015, dated 2020)
Where a name gives a salt, the structure may show the parent alone.

Experiments:
[1] = Solubility test; details: pH 2, aqueous buffer, thermodynamic from solid
[2] = Pharmacokinetics test, intravenous administration; details: intravenously administered to mice
[3] = format: in vivo, CD1 (ICR) mice; details: orally administered to mice
Source text: It was then centrifuged to obtain plasma.

[4] = Evaluation of a conversion rate to 2-acetylnaphtho[2,3-b]furan-4,9-dione in pH 7.4 phosphate buffer solution; format: physicochemical; details: Phosphate buffer solution (pH 7.4), 1 umol/L, 37° C., incubation time 120 min
Summary of the method: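 Compounds at 1 umol/L were incubated at 37° C in human plasma, CD1 mouse plasma or pH 7.4 phosphate buffer, sampled up to 120 minutes, acid/acetonitrile-deproteinised and analysed by LC-MS (ESI positive). Conversion (%) derived from the peak area ratio of the active form to phenytoin internal standard.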

[5] = Evaluation of a conversion rate to 2-acetylnaphtho[2,3-b]furan-4,9-dione in human plasma; format: in vitro ADME; details: human, 120 min, 1 umol/L
Summary of the method: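 Compounds at 1 umol/L incubated at 37° C in human plasma, CD1 mouse plasma or pH 7.4 phosphate buffer, sampled up to 120 minutes. After acidified acetonitrile protein removal, parent loss and conversion to 2-acetylnaphtho[2,3-b]furan-4,9-dione measured by LC-MS (ESI positive).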

[6] = Solution stability test; format: physicochemical; details: for % Residual ratio: 25 umol/L
Description: For Example 6, Example 11, and Example 22, the stability in each pH was measured. Test compounds at a concentration of 25 umol/L in respective buffer solutions prepared at pH 2.0, 3.0, 5.0, 7.4, and 9.0 were allowed to stand at 25° C. After 0, 3, 6, 9, 12, and 24 hours, they were measured with HPLC.
The buffer solutions used at respective pHs are as described below. pH 2.0: 50 mmol/L glycine buffer solution pH 3.0: 50 mmol/L citrate buffer solution pH 5.0: 50 mmol/L citrate buffer solution pH 7.4: 50 mmol/L phosphate buffer solution pH 9.0: 50 mmol/L glycine buffer solution
The measurement condition of HPLC is as described below.
Column temperature: 40° C.
Mobile phase: A: 0.1% trifluoroacetic acid-containing water

[7] = Evaluation of a conversion rate to 2-acetylnaphtho[2,3-b]furan-4,9-dione in CD1 mouse plasma; format: in vitro ADME; details: CD1, mouse, 120 min, 1 umol/L
Description: For test compounds, the decrease rate of the test compounds and the conversion rate thereof to 2-acetylnaphtho[2,3-b]furan-4,9-dione in human plasma, CD1 mouse plasma, and pH 7.4 phosphate buffer solution were measured.
Test compounds were incubated at the concentration of 1 umol/L in human plasma (cat. no. 12250210, COSMO BIO), CD1 mouse plasma (cat. no. AP3054, KAC), and phosphate buffer solution at 37° C., and removed at predetermined times (0, 5, 10, 30, 60, and 120 minutes). After protein-removing treatment was performed, they are analyzed with LC-MS. It should be noted that the protein-removing treatment used acetonitrile containing: 10% volume of 1 mol/L hydrochloric acid; 1% volume of 46% citric acid; and phenytoin as an internal standard.
The measurement condition of LC-MS is as described below. LC-MS condition column: Kinetex 2.6 u PFP 100 A 50×2.1 mm Column temperature: 40° C.
Mobile phase: A: 0.1% formic acid-containing water
• B: 0.1% formic acid-containing acetonitrile A/B(min): 95/5(0)→5/95(3)→5/95(4)→95/5(4.1)→95/5(6) Flow rate: 0.4 mL/min Detection: ESI (positive mode) Injection volume: 10 uL
Measurement values are calculated from the peak area ratio in LC-MS between an internal standard material, phenytoin and an active form, 2-acetylnaphtho[2,3-b]furan-4,9-dione, and are expressed in %.
In the same way as Example 6, the incubation time was set as 120 minutes later, and the conversion rate of each of various test compounds to 2-acetylnaphtho[2,3-b]furan-4,9-dione in human plasma, CD1 mouse plasma, and pH 7.4 phosphate buffer solution was measured. A series of the present compounds were confirmed to be converted to 2-acetylnaphtho[2,3-b]furan-4,9-dione in pH 7.4 phosphate buffer solution in addition to human plasma and CD1 mouse plasma. Therefore, a series of the test compounds of the present invention were confirmed to be converted to the activated form via a route other than an enzymatic conversion.

Q: With `CC(=O)c1cc2c(OC(=O)NCCNCC(=O)O)c3ccccc3c(OC(=O)NCCNCC(=O)O)c2o1` [Example 4, 2,2′-((((((2-Acetylnaphtho[2,3-b]furan-4,9-diyl)bis(oxy))bis(carbonyl))bis(azanediyl))bis(ethane-2,1-diyl))bis(azanediyl))diacetic acid dihydrochloride] as the molecule, how does the solubility at 24 hours ([1]; Solubility in pH 2.0 buffer solution, 50 mmol/L glycine buffer solution (pH 2.0), room temperature, 24 hours shaking) read?
A: > 5000 µg/mL

Q: What about the “production of 2-acetylnaphtho[2,3-b]furan-4,9-dione (Activated form 1) (in words)” value [2] of the same molecule?
A: rapidly produced

Q: What about the “concentration of 2-acetylnaphtho[2,3-b]furan-4,9-dione (Activated form 1) observed (in words)” value [3] of the same molecule?
A: high concentration

Q: What about the “% Measurement value (conversion rate to 2-acetylnaphtho[2,3-b]furan-4,9-dione)” value (from here on “% Measurement value”) ([4]; dihydrochloride) of the same molecule?
A: 53%

Q: Which “production of 2-acetylnaphtho[2,3-b]furan-4,9-dione (Activated form 1) (in words)” value [2] does the source give for `CC(=O)c1cc2c(OC(=O)NCCNCCC(=O)O)c3ccccc3c(OC(=O)NCCNCCC(=O)O)c2o1` [Example 5, 3,3′-((((((2-Acetylnaphtho[2,3-b]furan-4,9-diyl)bis(oxy))bis(carbonyl))bis-(azanediyl))bis(ethane-2,1-diyl))bis(azanediyl))dipropionic acid dihydrochloride] here?
A: rapidly produced

Q: What about the “concentration of 2-acetylnaphtho[2,3-b]furan-4,9-dione (Activated form 1) observed (in words)” value [3] of the same molecule?
A: high concentration

Q: And the “% Measurement value” value ([4]; dihydrochloride)?
A: 70%

Q: Which solubility at 24 hours ([1]; glycine buffer solution) does the source give for `CC(=O)c1cc2c(OC(=O)OCCC[C@H](N)C(=O)O)c3ccccc3c(OC(=O)OCCC[C@H](N)C(=O)O)c2o1` [Example 22] here?
A: > 5000 µg/mL

Q: What about the “% Measurement value” value [5] of the same molecule?
A: 37%

Q: And the “stability in solution (in words)” value ([6]; pH 2.0, 25° C.)?
A: sufficient stability

Q: What about the “% Residual ratio” value ([6]; pH 2.0, 25° C., 0 hr) of the same molecule?
A: 100%

Q: And the “% Residual ratio” value ([6]; pH 2.0, 25° C., 3 hr)?
A: 97.0%

Q: And the “% Residual ratio” value ([6]; pH 2.0, 25° C., 6 hr)?
A: 96.3%

Q: What about the “% Residual ratio” value ([6]; pH 2.0, 25° C., 9 hr) of the same molecule?
A: 97.8%

Q: And the “% Residual ratio” value ([6]; pH 2.0, 25° C., 12 hr)?
A: 97.1%

Q: What about the “% Residual ratio” value ([6]; pH 2.0, 25° C., 24 hr) of the same molecule?
A: 91.8%

Q: And the “stability in solution (in words)” value ([6]; pH 3.0, 25° C.)?
A: sufficient stability

Q: And the “% Residual ratio” value ([6]; pH 3.0, 25° C., 0 hr)?
A: 100%

Q: And the “% Residual ratio” value ([6]; pH 3.0, 25° C., 3 hr)?
A: 98.6%

Q: And the “% Residual ratio” value ([6]; pH 3.0, 25° C., 6 hr)?
A: 97.8%

Q: What about the “% Residual ratio” value ([6]; pH 3.0, 25° C., 9 hr) of the same molecule?
A: 96.9%

Q: What about the “% Residual ratio” value ([6]; pH 3.0, 25° C., 12 hr) of the same molecule?
A: 96.0%

Q: And the “% Residual ratio” value ([6]; pH 3.0, 25° C., 24 hr)?
A: 92.6%

Q: What about the “% Residual ratio” value ([6]; pH 5.0, 25° C., 0 hr) of the same molecule?
A: 100%

Q: And the “% Residual ratio” value ([6]; pH 5.0, 25° C., 3 hr)?
A: 81.2%

Q: What about the “% Residual ratio” value ([6]; pH 5.0, 25° C., 6 hr) of the same molecule?
A: 69.4%

Q: What about the “% Residual ratio” value ([6]; pH 5.0, 25° C., 9 hr) of the same molecule?
A: 58.8%

Q: What about the “% Residual ratio” value ([6]; pH 5.0, 25° C., 12 hr) of the same molecule?
A: 49.7%

Q: What about the “% Residual ratio” value ([6]; pH 5.0, 25° C., 24 hr) of the same molecule?
A: 24.5%

Q: What about the “% Residual ratio” value ([6]; pH 7.4, 25° C., 0 hr) of the same molecule?
A: 100%

Q: And the “% Residual ratio” value ([6]; pH 7.4, 25° C., 3 hr)?
A: 0%

Q: What about the “% Residual ratio” value ([6]; pH 7.4, 25° C., 6 hr) of the same molecule?
A: 0%

Q: What about the “% Residual ratio” value ([6]; pH 7.4, 25° C., 9 hr) of the same molecule?
A: 0%

Q: And the “% Residual ratio” value ([6]; pH 7.4, 25° C., 12 hr)?
A: 0%

Q: And the “% Residual ratio” value ([6]; pH 7.4, 25° C., 24 hr)?
A: 0%

Q: What about the “% Residual ratio” value ([6]; pH 9.0, 25° C., 0 hr) of the same molecule?
A: 100%

Q: What about the “% Residual ratio” value ([6]; pH 9.0, 25° C., 3 hr) of the same molecule?
A: 0%

Q: What about the “% Residual ratio” value ([6]; pH 9.0, 25° C., 6 hr) of the same molecule?
A: 0%

Q: What about the “% Residual ratio” value ([6]; pH 9.0, 25° C., 9 hr) of the same molecule?
A: 0%

Q: What about the “% Residual ratio” value ([6]; pH 9.0, 25° C., 12 hr) of the same molecule?
A: 0%

Q: And the “% Residual ratio” value ([6]; pH 9.0, 25° C., 24 hr)?
A: 0%

Q: And the “% Measurement value” value [4]?
A: 22%

Q: And the “% Measurement value” value [7]?
A: 56%

Q: Which results are given for `CC(=O)c1cc2c(OC(=O)OCCCCNCC(=O)O)c3ccccc3c(OC(=O)OCCCCNCC(=O)O)c2o1` [Example 23, 2,2′-((((((2-Acetylnaphtho[2,3-b]furan-4,9-diyl)bis(oxy)bis(carbonyl))bis(oxy))bis(butane-4,1-diyl))bis(azanediyl)diacetic acid dihydrochloride]?
A: solubility at 24 hours ([1]; glycine buffer solution): > 5000 µg/mL; production of 2-acetylnaphtho[2,3-b]furan-4,9-dione (Activated form 1) (in words) [2]: rapidly produced
